IC50 data for 22 compounds are collected here from US11446287B2, “Compounds and methods for EP300 or CBP modulation and indications therefor” (Opna Immuno-Oncology SA, priority 2019, dated 2022).

The test concerns the target T1, Recombinant human EP300 containing the bromodomain (EP300-BD (1040-1161)) (Homo sapiens, UniProt Q09472).
T1 construct: Recombinant human EP300 bromodomain (EP300-BD (1040-1161)); made in house; host or cells: E. coli BL21-CodonPlus (DE3), modified pET vector
T1 sequence (Q09472 1040-1161): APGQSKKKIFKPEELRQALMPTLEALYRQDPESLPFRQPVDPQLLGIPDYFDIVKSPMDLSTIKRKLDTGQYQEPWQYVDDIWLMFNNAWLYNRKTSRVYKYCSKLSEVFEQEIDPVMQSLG
The test is described as follows: EP300 Alphascreen binding assay. The gist of the method: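 Displacement of a biotinylated acetyl-K56 histone H3 peptide from the N-His bromodomain construct (1040-1161) measured by AlphaScreen proximity, beads at 7.5 μg/ml final, read 60 min after addition. Protein, peptide and compound first incubated 1 h at room temperature, pH 7.5 HEPES buffer; IC50 by four-parameter logistic fit.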
A general note: Bead proximity is the source of the signal in Alpha formats.

pIC50: −log10 of the molar value.

For orientation: pIC50 means the negative decadic logarithm of the IC50, by convention in mol/L.

Regarding `Cc1noc(C)c1-c1cnc2c(c1)c(-c1ccc(C(=O)O)cc1)cn2C(C)c1ncccn1` (stereo not shown) [P-0013, 4-(5-(3,5-dimethylisoxazol-4-yl)-1-(1-(pyrimidin-2-yl)ethyl)-1H-pyrrolo[2,3-b]pyridin-3-yl)benzoic acid], the pIC50 was 6.00 to 10.00. In the case of `Cc1noc(C)c1-c1cnc2c(c1)c(-c1ccc(C(=O)O)cc1)cn2C(C)c1ccc(F)cn1` (stereo not shown) [P-0014, 4-(5-(3,5-dimethylisoxazol-4-yl)-1-(1-(5-fluoropyridin-2-yl)ethyl)-1H-pyrrolo[2,3-b]pyridin-3-yl)benzoic acid] it was 6.00 to 10.00; in that of `Cc1noc(C)c1-c1cnc2c(c1)c(-c1cccc(C(=O)O)c1)cn2C(c1ccccn1)C1CCCC1` (stereo not shown) [P-0015, 3-(1-(cyclopentyl(pyridin-2-yl)methyl)-5-(3,5-dimethylisoxazol-4-yl)-1H-pyrrolo[2,3-b]pyridin-3-yl)benzoic acid], 6.00 to 10.00. For `Cc1noc(C)c1-c1cnc2c(c1)c(-c1ccc(F)c(C(=O)O)c1)cn2C(c1ccccn1)C1CCCC1` (stereo not shown) [P-0016, 5-(1-(cyclopentyl(pyridin-2-yl)methyl)-5-(3,5-dimethylisoxazol-4-yl)-1H-pyrrolo[2,3-b]pyridin-3-yl)-2-fluorobenzoic acid] the value was 6.00 to 10.00; for `Cc1noc(C)c1-c1cnc2c(c1)c(-c1ccnc(C(=O)O)c1)cn2C(c1ccccn1)C1CCCC1` (stereo not shown) [P-0017, 4-(1-(cyclopentyl(pyridin-2-yl)methyl)-5-(3,5-dimethylisoxazol-4-yl)-1H-pyrrolo[2,3-b]pyridin-3-yl)picolinic acid], 6.00 to 10.00. Consider `Cc1noc(C)c1-c1cnc2c(c1)c(-c1cccc(CC(=O)O)c1)cn2C(c1ccccn1)C1CCCC1` (stereo not shown) [P-0018, 2-(3-(1-(cyclopentyl(pyridin-2-yl)methyl)-5-(3,5-dimethylisoxazol-4-yl)-1H-pyrrolo[2,3-b]pyridin-3-yl)phenyl)acetic acid], for which the pIC50 was 6.00 to 10.00. In the case of `Cc1noc(C)c1-c1cnc2c(c1)c(-c1ccncc1)cn2C(c1ccccn1)C1CCCC1` (stereo not shown) [P-0019, 4-(1-(cyclopentyl(pyridin-2-yl)methyl)-3-(pyridin-4-yl)-1H-pyrrolo[2,3-b]pyridin-5-yl)-3,5-dimethylisoxazole] it was 5.10 to 6.00; in that of `Cc1noc(C)c1-c1cnc2c(c1)c(-c1ccc(C(=O)O)cc1OC1CC1)cn2[C@@H](C)c1ccccn1` [P-0170, (S)-3-cyclopropoxy-4-(5-(3,5-dimethylisoxazol-4-yl)-1-(1-(pyridin-2-yl)ethyl)-1H-pyrrolo[2,3-b]pyridin-3-yl)benzoic acid], 6.00 to 10.00.

For the compound `Cc1noc(C)c1-c1cnc2c(-c3ccc(C(=O)O)cc3C#CC3CC3)cn([C@@H](C)c3ccccn3)c2c1` [P-0171, (S)-3-(cyclopropylethynyl)-4-(6-(3,5-dimethylisoxazol-4-yl)-1-(1-(pyridin-2-yl)ethyl)-1H-pyrrolo[3,2-b]pyridin-3-yl)benzoic acid], the negative logarithm of the IC50 (pIC50) was 6.00 to 10.00. Consider `COc1ccc(C(=O)O)cc1-c1cn(C(C)(c2ccccn2)c2ccccn2)c2cc(-c3c(C)noc3C)cnc12` [P-0172, 3-(1-(1,1-di(pyridin-2-yl)ethyl)-6-(3,5-dimethylisoxazol-4-yl)-1H-pyrrolo[3,2-b]pyridin-3-yl)-4-methoxybenzoic acid], for which the pIC50 is 5.10 to 6.00. In the case of `CCOc1cc(C(=O)O)cc(OCC)c1-n1cc(-c2cccnc2)c2ncc(-c3c(C)noc3C)cc21` [P-0173, 4-(6-(3,5-dimethylisoxazol-4-yl)-3-(pyridin-3-yl)-1H-pyrrolo[3,2-b]pyridin-1-yl)-3,5-diethoxybenzoic acid] it was 6.00 to 10.00.

With `CCOc1cc(C(=O)O)cc(OC(C)C)c1-c1cn([C@@H](C)c2ccccn2)c2ncc(-c3c(C)noc3C)cc12` [P-0174, (S)-4-(5-(3,5-dimethylisoxazol-4-yl)-1-(1-(pyridin-2-yl)ethyl)-1H-pyrrolo[2,3-b]pyridin-3-yl)-3-ethoxy-5-isopropoxybenzoic acid], the pIC50 is 6.00 to 10.00. As to `Cc1noc(C)c1-c1cnc2c(c1)c(-c1ccc(C(=O)O)cc1OC(F)(F)F)cn2-c1cccnc1` [P-0175, 4-(5-(3,5-dimethylisoxazol-4-yl)-1-(pyridin-3-yl)-1H-pyrrolo[2,3-b]pyridin-3-yl)-3-(trifluoromethoxy)benzoic acid], the pIC50 is 6.00 to 10.00. Turning to `COc1ccncc1-n1cc(-c2ccc(C(=O)O)cc2OC(F)(F)F)c2cc(-c3c(C)noc3C)cnc21` [P-0176, 4-(5-(3,5-dimethylisoxazol-4-yl)-1-(4-methoxypyridin-3-yl)-1H-pyrrolo[2,3-b]pyridin-3-yl)-3-(trifluoromethoxy)benzoic acid], the negative-log IC50 (pIC50) is 6.00 to 10.00.

Turning to `Cc1noc(C)c1-c1cnc2c(c1)c(-c1ccc(C(=O)O)cc1OC(F)(F)F)cn2-c1cnccc1Cl` [P-0177, 4-(1-(4-chloropyridin-3-yl)-5-(3,5-dimethylisoxazol-4-yl)-1H-pyrrolo[2,3-b]pyridin-3-yl)-3-(trifluoromethoxy)benzoic acid], the pIC50 was 6.00 to 10.00. In the case of `Cc1noc(C)c1-c1cnc2c(c1)c(-c1ccc(C(=O)O)cc1C#CC1CC1)cn2[C@@H](C)c1ccccn1` [P-0178, (S)-3-(cyclopropylethynyl)-4-(5-(3,5-dimethylisoxazol-4-yl)-1-(1-(pyridin-2-yl)ethyl)-1H-pyrrolo[2,3-b]pyridin-3-yl)benzoic acid] it was 5.10 to 6.00; in that of `Cc1noc(C)c1-c1cnc2c(c1)c(-c1ccc(C(=O)O)cc1OC1CCC1)cn2[C@@H](C)c1ccccn1` [P-0179, (S)-3-cyclobutoxy-4-(5-(3,5-dimethylisoxazol-4-yl)-1-(1-(pyridin-2-yl)ethyl)-1H-pyrrolo[2,3-b]pyridin-3-yl)benzoic acid], 6.00 to 10.00.

`Cc1noc(C)c1-c1cnc2c(c1)c(-c1ccc(C(=O)O)cc1OC(F)(F)F)cn2-c1ncccc1C(F)(F)F` [P-0180, 4-(5-(3,5-dimethylisoxazol-4-yl)-1-(3-(trifluoromethyl)pyridin-2-yl)-1H-pyrrolo[2,3-b]pyridin-3-yl)-3-(trifluoromethoxy)benzoic acid]: the pIC50 was 6.00 to 10.00. In the case of `Cc1noc(C)c1-c1cnc2c(c1)c(-c1ccc(C(=O)O)cc1C1CC1)cn2[C@@H](C)c1ccccn1` [P-0181, (S)-3-cyclopropyl-4-(5-(3,5-dimethylisoxazol-4-yl)-1-(1-(pyridin-2-yl)ethyl)-1H-pyrrolo[2,3-b]pyridin-3-yl)benzoic acid], the negative-log IC50 (pIC50) is 6.00 to 10.00.

As to `Cc1noc(C)c1-c1cnc2c(c1)c(-c1ccc(C(=O)O)cc1OC(F)(F)F)cn2-c1ncccc1F` [P-0182, 4-(5-(3,5-dimethylisoxazol-4-yl)-1-(3-fluoropyridin-2-yl)-1H-pyrrolo[2,3-b]pyridin-3-yl)-3-(trifluoromethoxy)benzoic acid], the pIC50 is 6.00 to 10.00. For `Cc1noc(C)c1-c1cnc2c(c1)c(-c1ccc(C(=O)O)cc1OC(F)(F)F)cn2-c1ncccc1Cl` [P-0183, 4-(1-(3-chloropyridin-2-yl)-5-(3,5-dimethylisoxazol-4-yl)-1H-pyrrolo[2,3-b]pyridin-3-yl)-3-(trifluoromethoxy)benzoic acid] the value was 6.00 to 10.00; for `CCOc1cc(C(=O)O)cc(OCC)c1-n1cc(-c2ccc(F)cc2)c2ncc(-c3c(C)noc3C)cc21` [P-0184, 4-(6-(3,5-dimethylisoxazol-4-yl)-3-(4-fluorophenyl)-1H-pyrrolo[3,2-b]pyridin-1-yl)-3,5-diethoxybenzoic acid], 6.00 to 10.00.
